Article PMC8401933 (Molecules, 2021)

How the values were obtained:
CHEK2 = molecular target: T1, CHEK2 (Homo sapiens, UniProt O96017); assay: KINOMEscan binding; settings: read-out: Percent Control
T1 construct: purchased Eurofins DiscoverX KINOMEscan

EPHA1 = molecular target: T2, EPHA1 (Homo sapiens, UniProt P21709); assay: KINOMEscan binding; settings: read-out: Percent Control
T2 construct: purchased Eurofins DiscoverX KINOMEscan

LRRK2(G2019S) = molecular target: T3, LRRK2(G2019S) (Homo sapiens, UniProt Q5S007, G2019S); assay: KINOMEscan binding; settings: read-out: Percent Control
T3 construct: purchased Eurofins DiscoverX KINOMEscan

PIK3CA(E542K) = molecular target: T4, PIK3CA(E542K) (Homo sapiens, UniProt P42336, E542K); assay: KINOMEscan binding; settings: read-out: Percent Control
T4 construct: purchased Eurofins DiscoverX KINOMEscan

[1] = molecular target: T5, ABL1(F317I)-phosphorylated (Homo sapiens, UniProt P00519, F317I); assay: KINOMEscan binding; settings: read-out: Percent Control
T5 construct: purchased Eurofins DiscoverX KINOMEscan

PDGFRB = molecular target: T6, PDGFRB (Homo sapiens, UniProt P09619); assay: KINOMEscan binding; settings: read-out: Percent Control
T6 construct: purchased Eurofins DiscoverX KINOMEscan

FGFR2 = molecular target: T7, FGFR2 (Homo sapiens, UniProt P21802); assay: KINOMEscan binding; settings: read-out: Percent Control
T7 construct: purchased Eurofins DiscoverX KINOMEscan

MAP3K1 = molecular target: T8, MAP3K1 (Homo sapiens, UniProt Q13233); assay: KINOMEscan binding; settings: read-out: Percent Control
T8 construct: purchased Eurofins DiscoverX KINOMEscan

RIPK5 = molecular target: T9, RIPK5 (Homo sapiens, UniProt Q6XUX3); assay: KINOMEscan binding; settings: read-out: Percent Control
T9 construct: purchased Eurofins DiscoverX KINOMEscan

JNK1 = molecular target: T10, JNK1 (Homo sapiens, UniProt P45983); assay: KINOMEscan binding; settings: read-out: Percent Control
T10 construct: purchased Eurofins DiscoverX KINOMEscan

PLK3 = molecular target: T11, PLK3 (Homo sapiens, UniProt Q9H4B4); assay: KINOMEscan binding; settings: read-out: Percent Control
T11 construct: purchased Eurofins DiscoverX KINOMEscan

DDR1 = molecular target: T12, DDR1 (Homo sapiens, UniProt Q08345); assay: KINOMEscan binding; settings: read-out: Percent Control
T12 construct: purchased Eurofins DiscoverX KINOMEscan

SYK = molecular target: T13, SYK (Homo sapiens, UniProt P43405); assay: KINOMEscan binding; settings: read-out: Percent Control
T13 construct: purchased Eurofins DiscoverX KINOMEscan

[2] = molecular target: T14, ABL1(H396P)-nonphosphorylated (Homo sapiens, UniProt P00519, H396P); assay: KINOMEscan binding; settings: read-out: Percent Control
T14 construct: purchased Eurofins DiscoverX KINOMEscan

PIKFYVE = molecular target: T15, PIKFYVE (Homo sapiens, UniProt Q9Y2I7); assay: KINOMEscan binding; settings: read-out: Percent Control
T15 construct: purchased Eurofins DiscoverX KINOMEscan

ABL2 = molecular target: T16, ABL2 (Homo sapiens, UniProt P42684); assay: KINOMEscan binding; settings: read-out: Percent Control
T16 construct: purchased Eurofins DiscoverX KINOMEscan

ROCK2 = test system: ROCK2; parameters: method as in PMID 18832915; settings: cited from earlier work
CDK2 = molecular target: T17, CDK2 (Homo sapiens, UniProt P24941); assay: KINOMEscan binding; settings: read-out: Percent Control
T17 construct: purchased Eurofins DiscoverX KINOMEscan

BMPR1B = molecular target: T18, BMPR1B (Homo sapiens, UniProt O00238); assay: KINOMEscan binding; settings: read-out: Percent Control
T18 construct: purchased Eurofins DiscoverX KINOMEscan

DMPK = molecular target: T19, DMPK (Homo sapiens, UniProt Q09013); assay: KINOMEscan binding; settings: read-out: Percent Control
T19 construct: purchased Eurofins DiscoverX KINOMEscan

LIMK1 = molecular target: T20, LIMK1 (Homo sapiens, UniProt P53667); assay: KINOMEscan binding; settings: read-out: Percent Control
T20 construct: purchased Eurofins DiscoverX KINOMEscan

ERBB3 = molecular target: T21, ERBB3 (Homo sapiens, UniProt P21860); assay: KINOMEscan binding; settings: read-out: Percent Control
T21 construct: purchased Eurofins DiscoverX KINOMEscan

ULK2 = molecular target: T22, ULK2 (Homo sapiens, UniProt Q8IYT8); assay: KINOMEscan binding; settings: read-out: Percent Control
T22 construct: purchased Eurofins DiscoverX KINOMEscan

CDC2L5 = molecular target: T23, CDC2L5 (Homo sapiens, UniProt Q14004); assay: KINOMEscan binding; settings: read-out: Percent Control
T23 construct: purchased Eurofins DiscoverX KINOMEscan
Description: (§1) This platform contains 468 recombinant human kinases (more than 80% coverage) in which 56 disease-relevant mutants are included. The recombinant DNA-tagged kinases were incubated with the probe ligands immobilized to a solid support, and then the level of the captured kinases on the solid support was measured using quantitative PCR.

PRP4 = molecular target: T24, PRP4 (Homo sapiens, UniProt Q13523); assay: KINOMEscan binding; settings: read-out: Percent Control
T24 construct: purchased Eurofins DiscoverX KINOMEscan
Description: as §1

MLK1 = molecular target: T25, MLK1 (Homo sapiens, UniProt P80192); assay: KINOMEscan binding; settings: read-out: Percent Control
T25 construct: purchased Eurofins DiscoverX KINOMEscan

RIOK2 = molecular target: T26, RIOK2 (Homo sapiens, UniProt Q9BVS4); assay: KINOMEscan binding; settings: read-out: Percent Control
T26 construct: purchased Eurofins DiscoverX KINOMEscan

EPHA8 = molecular target: T27, EPHA8 (Homo sapiens, UniProt P29322); assay: KINOMEscan binding; settings: read-out: Percent Control
T27 construct: purchased Eurofins DiscoverX KINOMEscan

AURKB = molecular target: T28, AURKB (Homo sapiens, UniProt Q96GD4); assay: KINOMEscan binding; settings: read-out: Percent Control
T28 construct: purchased Eurofins DiscoverX KINOMEscan

WNK1 = molecular target: T29, WNK1 (Homo sapiens, UniProt Q9H4A3); assay: KINOMEscan binding; settings: read-out: Percent Control
T29 construct: purchased Eurofins DiscoverX KINOMEscan

[3] = molecular target: T30, RSK4(Kin.Dom.1-N-terminal) (Homo sapiens, UniProt Q9UK32); assay: KINOMEscan binding; settings: read-out: Percent Control
T30 construct: RSK4(Kin.Dom.1-N-terminal); purchased Eurofins DiscoverX KINOMEscan

[4] = molecular target: T31, JAK1(JH2domain-pseudokinase) (Homo sapiens, UniProt P23458); assay: KINOMEscan binding; settings: read-out: Percent Control
T31 construct: JAK1(JH2domain-pseudokinase); purchased Eurofins DiscoverX KINOMEscan

GRK3 = molecular target: T32, GRK3 (Homo sapiens, UniProt P35626); assay: KINOMEscan binding; settings: read-out: Percent Control
T32 construct: purchased Eurofins DiscoverX KINOMEscan

FGFR3 = molecular target: T33, FGFR3 (Homo sapiens, UniProt P22607); assay: KINOMEscan binding; settings: read-out: Percent Control
T33 construct: purchased Eurofins DiscoverX KINOMEscan

MTOR = molecular target: T34, MTOR (Homo sapiens, UniProt P42345); assay: KINOMEscan binding; settings: read-out: Percent Control
T34 construct: purchased Eurofins DiscoverX KINOMEscan

KIT(V559D) = molecular target: T35, KIT(V559D) (Homo sapiens, UniProt P10721, V559D); assay: KINOMEscan binding; settings: read-out: Percent Control
T35 construct: purchased Eurofins DiscoverX KINOMEscan

IRAK1 = molecular target: T36, IRAK1 (Homo sapiens, UniProt P51617); assay: KINOMEscan binding; settings: read-out: Percent Control
T36 construct: purchased Eurofins DiscoverX KINOMEscan

FLT3 = molecular target: T37, FLT3 (Homo sapiens, UniProt P36888); assay: KINOMEscan binding; settings: read-out: Percent Control
T37 construct: purchased Eurofins DiscoverX KINOMEscan

FLT3(N841I) = molecular target: T38, FLT3(N841I) (Homo sapiens, UniProt P36888, N841I); assay: KINOMEscan binding; settings: read-out: Percent Control
T38 construct: purchased Eurofins DiscoverX KINOMEscan

GSK3A = molecular target: T39, GSK3A (Homo sapiens, UniProt P49840); assay: KINOMEscan binding; settings: read-out: Percent Control
T39 construct: purchased Eurofins DiscoverX KINOMEscan

JNK3 = molecular target: T40, JNK3 (Homo sapiens, UniProt P53779); assay: KINOMEscan binding; settings: read-out: Percent Control
T40 construct: purchased Eurofins DiscoverX KINOMEscan

T2 sequence (P21709 26-976): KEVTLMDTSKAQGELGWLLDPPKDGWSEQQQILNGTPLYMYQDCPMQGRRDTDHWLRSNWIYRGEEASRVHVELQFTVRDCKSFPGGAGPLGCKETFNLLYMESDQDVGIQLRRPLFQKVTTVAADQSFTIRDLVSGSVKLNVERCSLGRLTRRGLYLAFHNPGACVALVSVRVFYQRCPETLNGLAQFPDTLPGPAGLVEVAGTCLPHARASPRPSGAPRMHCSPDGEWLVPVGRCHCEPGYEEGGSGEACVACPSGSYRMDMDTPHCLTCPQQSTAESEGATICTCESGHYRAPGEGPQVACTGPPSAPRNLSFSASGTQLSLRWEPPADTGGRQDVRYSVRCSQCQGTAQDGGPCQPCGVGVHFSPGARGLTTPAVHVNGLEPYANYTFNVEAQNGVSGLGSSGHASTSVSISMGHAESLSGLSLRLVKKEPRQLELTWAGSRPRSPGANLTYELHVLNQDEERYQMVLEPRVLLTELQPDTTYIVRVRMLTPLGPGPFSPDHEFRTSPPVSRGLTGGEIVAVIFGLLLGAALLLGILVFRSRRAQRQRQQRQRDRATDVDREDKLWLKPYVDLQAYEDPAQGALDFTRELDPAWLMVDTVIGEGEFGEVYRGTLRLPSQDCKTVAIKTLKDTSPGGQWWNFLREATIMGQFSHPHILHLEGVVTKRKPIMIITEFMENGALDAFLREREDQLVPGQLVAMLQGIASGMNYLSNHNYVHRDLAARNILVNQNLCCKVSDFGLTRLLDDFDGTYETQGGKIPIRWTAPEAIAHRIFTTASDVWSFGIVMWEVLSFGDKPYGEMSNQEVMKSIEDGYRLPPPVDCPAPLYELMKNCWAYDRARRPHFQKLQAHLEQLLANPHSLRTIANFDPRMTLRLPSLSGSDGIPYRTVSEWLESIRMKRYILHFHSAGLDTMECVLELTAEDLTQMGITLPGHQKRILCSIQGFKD
T22 sequence (Q8IYT8 whole entry): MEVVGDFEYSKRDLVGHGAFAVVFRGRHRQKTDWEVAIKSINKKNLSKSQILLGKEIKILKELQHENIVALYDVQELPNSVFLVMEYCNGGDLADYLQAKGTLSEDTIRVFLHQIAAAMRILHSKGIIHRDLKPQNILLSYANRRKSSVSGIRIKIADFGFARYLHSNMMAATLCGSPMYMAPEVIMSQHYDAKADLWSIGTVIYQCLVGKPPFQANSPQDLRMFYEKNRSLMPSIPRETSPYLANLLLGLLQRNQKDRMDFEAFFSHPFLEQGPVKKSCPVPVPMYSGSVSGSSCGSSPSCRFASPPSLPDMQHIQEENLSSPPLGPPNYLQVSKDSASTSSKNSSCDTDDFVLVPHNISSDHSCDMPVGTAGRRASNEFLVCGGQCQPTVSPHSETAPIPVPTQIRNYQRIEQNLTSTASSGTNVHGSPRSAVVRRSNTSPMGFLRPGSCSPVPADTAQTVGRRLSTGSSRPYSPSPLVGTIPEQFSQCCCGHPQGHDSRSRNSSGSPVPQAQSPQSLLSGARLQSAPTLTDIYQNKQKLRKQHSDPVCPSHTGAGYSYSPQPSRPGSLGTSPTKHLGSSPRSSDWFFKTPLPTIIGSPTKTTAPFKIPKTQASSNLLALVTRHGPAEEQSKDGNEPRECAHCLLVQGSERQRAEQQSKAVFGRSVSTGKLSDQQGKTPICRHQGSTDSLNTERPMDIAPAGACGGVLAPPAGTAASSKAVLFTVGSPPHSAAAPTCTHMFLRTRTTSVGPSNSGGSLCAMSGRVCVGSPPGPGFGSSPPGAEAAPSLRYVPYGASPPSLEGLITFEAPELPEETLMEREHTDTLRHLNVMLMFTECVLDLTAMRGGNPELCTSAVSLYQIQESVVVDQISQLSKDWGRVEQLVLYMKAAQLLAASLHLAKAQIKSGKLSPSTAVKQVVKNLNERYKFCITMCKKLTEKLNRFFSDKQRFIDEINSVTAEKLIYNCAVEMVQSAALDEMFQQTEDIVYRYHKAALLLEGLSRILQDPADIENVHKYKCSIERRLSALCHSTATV
T32 sequence (P35626 whole entry): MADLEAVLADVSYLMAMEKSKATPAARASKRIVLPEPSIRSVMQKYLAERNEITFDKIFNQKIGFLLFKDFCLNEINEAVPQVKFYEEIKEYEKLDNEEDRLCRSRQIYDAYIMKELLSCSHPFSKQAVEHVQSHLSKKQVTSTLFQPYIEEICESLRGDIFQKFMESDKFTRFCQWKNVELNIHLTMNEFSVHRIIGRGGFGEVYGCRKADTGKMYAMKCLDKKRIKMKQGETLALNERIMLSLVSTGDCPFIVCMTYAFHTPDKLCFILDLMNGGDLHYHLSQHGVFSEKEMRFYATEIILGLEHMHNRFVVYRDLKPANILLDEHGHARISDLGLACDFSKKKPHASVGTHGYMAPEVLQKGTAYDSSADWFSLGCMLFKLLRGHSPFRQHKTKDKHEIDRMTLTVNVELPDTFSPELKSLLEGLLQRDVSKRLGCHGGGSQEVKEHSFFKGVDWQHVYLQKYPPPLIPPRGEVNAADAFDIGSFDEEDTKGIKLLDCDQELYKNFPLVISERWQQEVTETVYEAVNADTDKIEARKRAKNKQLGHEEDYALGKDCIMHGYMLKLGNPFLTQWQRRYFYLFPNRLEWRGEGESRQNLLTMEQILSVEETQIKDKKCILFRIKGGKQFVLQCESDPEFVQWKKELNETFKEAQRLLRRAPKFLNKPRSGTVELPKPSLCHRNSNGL
T11 sequence (Q9H4B4 whole entry): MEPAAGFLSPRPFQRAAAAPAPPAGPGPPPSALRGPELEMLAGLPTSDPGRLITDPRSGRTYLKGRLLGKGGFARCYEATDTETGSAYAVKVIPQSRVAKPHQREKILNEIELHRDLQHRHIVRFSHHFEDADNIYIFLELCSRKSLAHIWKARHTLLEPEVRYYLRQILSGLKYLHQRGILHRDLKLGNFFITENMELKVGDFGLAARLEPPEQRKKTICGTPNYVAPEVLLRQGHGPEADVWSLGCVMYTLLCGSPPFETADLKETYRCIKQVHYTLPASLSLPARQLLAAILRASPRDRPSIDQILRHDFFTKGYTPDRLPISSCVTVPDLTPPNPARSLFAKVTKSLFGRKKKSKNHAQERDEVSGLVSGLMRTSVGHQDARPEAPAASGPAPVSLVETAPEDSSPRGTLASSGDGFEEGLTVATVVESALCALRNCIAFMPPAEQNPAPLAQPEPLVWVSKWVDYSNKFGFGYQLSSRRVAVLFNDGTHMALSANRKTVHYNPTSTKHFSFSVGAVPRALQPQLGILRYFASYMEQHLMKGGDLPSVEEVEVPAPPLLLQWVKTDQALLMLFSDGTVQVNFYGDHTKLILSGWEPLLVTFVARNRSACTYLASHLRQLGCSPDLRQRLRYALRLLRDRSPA
T6 sequence (P09619 33-1106): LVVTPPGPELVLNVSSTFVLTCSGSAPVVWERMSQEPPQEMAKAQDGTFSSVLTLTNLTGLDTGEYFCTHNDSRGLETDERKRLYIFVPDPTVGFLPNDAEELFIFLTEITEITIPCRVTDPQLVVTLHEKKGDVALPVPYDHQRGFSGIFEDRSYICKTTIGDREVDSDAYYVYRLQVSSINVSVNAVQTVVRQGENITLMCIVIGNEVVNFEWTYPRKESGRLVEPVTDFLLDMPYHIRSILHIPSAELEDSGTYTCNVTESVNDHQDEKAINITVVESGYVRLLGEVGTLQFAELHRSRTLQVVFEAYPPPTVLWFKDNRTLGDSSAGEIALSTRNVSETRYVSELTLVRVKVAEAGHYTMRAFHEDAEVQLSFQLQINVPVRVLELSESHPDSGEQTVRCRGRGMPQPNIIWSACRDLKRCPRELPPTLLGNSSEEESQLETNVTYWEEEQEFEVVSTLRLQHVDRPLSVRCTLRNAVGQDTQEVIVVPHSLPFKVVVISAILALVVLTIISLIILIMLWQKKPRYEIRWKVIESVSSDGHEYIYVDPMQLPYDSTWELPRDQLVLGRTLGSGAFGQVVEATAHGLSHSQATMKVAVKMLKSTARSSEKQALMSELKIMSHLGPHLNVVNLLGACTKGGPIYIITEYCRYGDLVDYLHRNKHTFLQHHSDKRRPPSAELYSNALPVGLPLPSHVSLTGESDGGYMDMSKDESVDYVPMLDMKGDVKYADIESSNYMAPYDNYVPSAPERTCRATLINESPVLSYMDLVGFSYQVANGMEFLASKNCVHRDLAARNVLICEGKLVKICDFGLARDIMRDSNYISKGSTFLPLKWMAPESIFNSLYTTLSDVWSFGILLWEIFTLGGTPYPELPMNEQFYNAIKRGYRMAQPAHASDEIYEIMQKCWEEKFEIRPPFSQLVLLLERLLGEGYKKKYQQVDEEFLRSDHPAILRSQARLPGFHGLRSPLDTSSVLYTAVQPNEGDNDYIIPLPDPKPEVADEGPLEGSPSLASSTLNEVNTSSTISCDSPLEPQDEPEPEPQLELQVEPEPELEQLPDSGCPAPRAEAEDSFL
T28 sequence (Q96GD4 whole entry): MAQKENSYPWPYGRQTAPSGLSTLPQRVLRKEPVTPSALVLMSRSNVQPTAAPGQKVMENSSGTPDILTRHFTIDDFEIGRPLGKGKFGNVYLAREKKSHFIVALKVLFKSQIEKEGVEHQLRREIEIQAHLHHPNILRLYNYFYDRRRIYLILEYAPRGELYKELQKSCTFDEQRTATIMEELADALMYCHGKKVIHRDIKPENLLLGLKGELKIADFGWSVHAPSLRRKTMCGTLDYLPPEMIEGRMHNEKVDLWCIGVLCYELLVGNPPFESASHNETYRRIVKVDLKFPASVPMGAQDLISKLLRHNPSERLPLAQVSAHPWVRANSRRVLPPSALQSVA
T31 sequence (P23458 545-874 limits assumed): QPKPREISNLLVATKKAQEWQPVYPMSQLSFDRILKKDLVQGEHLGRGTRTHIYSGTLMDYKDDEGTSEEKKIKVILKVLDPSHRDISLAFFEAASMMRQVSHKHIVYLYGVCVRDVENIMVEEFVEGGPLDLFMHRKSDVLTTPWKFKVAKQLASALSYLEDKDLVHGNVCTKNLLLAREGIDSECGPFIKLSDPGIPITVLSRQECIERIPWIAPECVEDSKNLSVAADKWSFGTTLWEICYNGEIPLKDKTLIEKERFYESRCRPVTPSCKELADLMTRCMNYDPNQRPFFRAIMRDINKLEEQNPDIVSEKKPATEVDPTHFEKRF

## CC(C)NC(=O)COc1cccc(-c2nc(Nc3ccc4[nH]ncc4c3)c3ccccc3n2)c1 [KD025, 2-(3-(4-((1H-indazol-5-yl)amino)quinazolin-2-yl)phenoxy)-N-isopropylacetamide]
CHEK2
  remaining binding at 10 µM: 99%
EPHA1
  remaining binding at 10 µM: 88%
LRRK2(G2019S)
  remaining binding at 10 µM: 99%
PIK3CA(E542K)
  remaining binding at 10 µM: 78%
[1]
  remaining binding at 10 µM: 93%
PDGFRB
  remaining binding at 10 µM: 76%
FGFR2
  remaining binding at 10 µM: 84%
MAP3K1
  remaining binding at 10 µM: 85%
RIPK5
  remaining binding at 10 µM: 64%
JNK1
  remaining binding at 10 µM: 70%
PLK3
  remaining binding at 10 µM: 72%
DDR1
  remaining binding at 10 µM: 6.4%
SYK
  remaining binding at 10 µM: 100%
[2]
  remaining binding at 10 µM: 90%
PIKFYVE
  remaining binding at 10 µM: 12%
ABL2
  remaining binding at 10 µM: 92%
ROCK2
  IC50: […]
CDK2
  remaining binding at 10 µM: 93%
BMPR1B
  remaining binding at 10 µM: 76%
DMPK
  remaining binding at 10 µM: 97%
LIMK1
  remaining binding at 10 µM: 92%
ERBB3
  remaining binding at 10 µM: 79%
ULK2
  remaining binding at 10 µM: 87%
CDC2L5
  remaining binding at 10 µM: 100%
PRP4
  remaining binding at 10 µM: 15%
MLK1
  remaining binding at 10 µM: 87%
RIOK2
  remaining binding at 10 µM: 60%
EPHA8
  remaining binding at 10 µM: 88%
AURKB
  remaining binding at 10 µM: 61%
WNK1
  remaining binding at 10 µM: 94%
[3]
  remaining binding at 10 µM: 93%
[4]
  remaining binding at 10 µM: 39%
GRK3
  remaining binding at 10 µM: 84%
FGFR3
  remaining binding at 10 µM: 72%
MTOR
  remaining binding at 10 µM: 92%
KIT(V559D)
  remaining binding at 10 µM: 72%
IRAK1
  remaining binding at 10 µM: 100%
FLT3
  remaining binding at 10 µM: 60%
FLT3(N841I)
  remaining binding at 10 µM: 19%
GSK3A
  remaining binding at 10 µM: 100%
JNK3
  remaining binding at 10 µM: 78%
